These results are taken from ChEMBL document CHEMBL5257100, “Discovery and development of benzene sulfonamide derivatives as anti-hepatic fibrosis agents” (Bioorg Med Chem Lett, 2023).

Activity calls are given as the source filed them. The rule behind the calls is not given here.

Series [1] in a line: Anti-hepatic fibrosis activity in human LX2 cells assessed as inhibition of COL1A1 promoter activity at 25 micromol/L by luciferase reporter assay relative to control. Format: functional. The following applies: LX-2, dose 25 µmol/L. (A reporter such as luciferase makes a cellular process visible.)
In series [2] the test system is LX-2. The series is described as follows: Anti-hepatic fibrosis activity in human LX2 cells assessed as inhibition of TGF-beta1 induced COL1A1 mRNA expression at 3 micromol/L incubated for 24 hrs by qPCR analysis. Format: functional, cell-based. Particulars: dose 3.0 µmol/L. A general note: Quantitative PCR measures a nucleic acid by following its amplification.
Series [3] concerns LX-2. Description: Anti-hepatic fibrosis activity in human LX2 cells assessed as inhibition of TGF-beta1 induced MMP-2 mRNA expression at 3 micromol/L incubated for 24 hrs by qPCR analysis. Particulars: dose 3.0 µmol/L. Format: functional, cell-based.
Series [4] relates to LX-2. The series is described as follows: Anti-hepatic fibrosis activity in human LX2 cells assessed as inhibition of TGF-beta1 induced intrinsic TGF-beta1 mRNA expression at 3 micromol/L incubated for 24 hrs by qPCR analysis. Format: functional, cell-based. The following applies: dose 3.0 µmol/L.
In series [5] the test system is LX-2. Description: Anti-hepatic fibrosis activity in human LX2 cells assessed as inhibition of TGFbeta1-induced COL1A1 protein expression at 3 uM incubated for 24 hrs by western blot analysis. Format: functional, cell-based. (A western blot detects proteins with antibodies after separation by electrophoresis.)
The test system of series [6] is LX-2. The series is described as follows: Anti-hepatic fibrosis activity in human LX2 cells assessed as inhibition of TGFbeta1-induced FN protein expression at 3 uM incubated for 24 hrs by western blot analysis. Format: functional, cell-based.
Series [7] has as its system LX-2. Description: Anti-hepatic fibrosis activity in human LX2 cells assessed as inhibition of TGFbeta1-induced alpha-SMA protein expression at 3 uM incubated for 24 hrs by western blot analysis. Format: functional, cell-based.
Series [8] has as its system LX-2. Description: Anti-hepatic fibrosis activity in human LX2 cells assessed as inhibition of TGFbeta1-induced TIMP-1 protein expression at 3 uM incubated for 24 hrs by western blot analysis. Format: functional, cell-based.
Series [9] relates to LX-2. Description: Anti-hepatic fibrosis activity in human LX2 cells assessed as inhibition of TGFbeta1-induced COL1A1 protein expression at 1 uM incubated for 24 hrs by western blot analysis. Format: functional, cell-based.
The test system of series [10] is LX-2. The series is described as follows: Anti-hepatic fibrosis activity in human LX2 cells assessed as inhibition of TGFbeta1-induced FN protein expression at 1 uM incubated for 24 hrs by western blot analysis. Format: functional, cell-based.
Series [11] deals with LX-2. Description: Anti-hepatic fibrosis activity in human LX2 cells assessed as inhibition of TGFbeta1-induced alpha-SMA protein expression at 1 uM incubated for 24 hrs by western blot analysis. Format: functional, cell-based.
For series [12], the system named is LX-2. The series is described as follows: Anti-hepatic fibrosis activity in human LX2 cells assessed as inhibition of TGFbeta1-induced TIMP-1 protein expression at 1 uM incubated for 24 hrs by western blot analysis. Format: functional, cell-based.
Series [13] is described as follows: Cytotoxicity against human LX2 cells assessed as mortality rate at 1 to 30 uM incubated for 24 hrs by Sulfonyl Rhodamine B assay. The following applies: lx-2, 24 h, dose 1-30 µM. Format: toxicity, cell-based.
Series [14] concerns AML12. The series is described as follows: Cytotoxicity against mouse AML12 cells assessed as mortality rate at 1 to 30 uM incubated for 24 hrs by Sulfonyl Rhodamine B assay. Format: toxicity, cell-based. The following applies: aml12, 24 h, dose 1-30 µM.
The nature of series [15]: Inhibition of JAK1/STAT1/STAT3 signaling pathway in human LX2 cells assessed as decrease in TGF-beta induced JAK1 phosphorylation level at 1 uM incubated for 24 hrs by Western blot analysis. Format: cell-based.
A short description of series [16]: Inhibition of JAK1/STAT1/STAT3 signaling pathway in human LX2 cells assessed as decrease in TGF-beta induced STAT1 phosphorylation level at 1 uM incubated for 24 hrs by Western blot analysis. Format: cell-based.
A short description of series [17]: Inhibition of JAK1/STAT1/STAT3 signaling pathway in human LX2 cells assessed as decrease in TGF-beta induced STAT3 phosphorylation level at 1 uM incubated for 24 hrs by Western blot analysis. Format: cell-based.

As to `O=C(Nc1ccccc1NS(=O)(=O)c1cccc([N+](=O)[O-])c1)c1cc(Cl)c(Cl)c(Cl)c1`, the inhibition (as a rule, the share of the control response that was lost under treatment) at 25 µM in [1] worked out at 61.7%. The inhibition entry in series [2], in series [3], in series [4], in [5], in series [6] and in series [7] was “Active” throughout. Also, the inhibition entry in series [8], in [9], in [10], in series [11], in series [12] and in series [15] was “Active” throughout. In addition, the inhibition result in series [16] and in [17] was “Active” each time. In addition, the results for the Activity entry in series [13] and in series [14] were “Toxic” and “Non-Toxic”, respectively.
Take `O=C(Nc1ccccc1NS(=O)(=O)c1ccc([N+](=O)[O-])cc1)c1cc(Cl)c(Cl)c(Cl)c1`: in series [1], the inhibition at 25 µM stood at 54.8%. Further, the inhibition result in series [2], in series [3], in [4], in series [5], in series [6] and in [7] was “Active” each time. Besides, the inhibition result in series [8], in [9], in series [10], in [11], in series [12] and in series [15] was “Active” throughout. For the same molecule, the inhibition result in series [16] and in [17] was “Active” each time. Moreover, the Activity entry in series [13] and in series [14] was “Non-Toxic” each time.
With `O=C(Nc1ccccc1NS(=O)(=O)c1cccc(C(F)(F)F)c1)c1cc(Cl)c(Cl)c(Cl)c1`, the inhibition at 25 µM in [1] worked out at 60.7%. Further, the inhibition result in [2], in series [3], in series [4], in series [9], in [10] and in series [11] was “Active” in each case. For the same molecule, the inhibition result in series [12], in series [15], in series [16] and in [17] was “Active” throughout. In addition, the Activity entry in series [13] and in [14] was “Non-Toxic” throughout.
